This note sets out measurements from patent US20040224884A1, “Methods of screening for apoptosis-controlling agents for bone anabolic therapies and uses thereof” (priority 1998, published 2004).

The target in test [1] is T1, murine estrogen receptor-beta (mERβ) (Mus musculus, UniProt O08537).
T1 construct: expressed in transfected cells
The test is described as follows: Etoposide-induced apoptosis in HeLa cells stably transfected with mERβ. Type of test: cell-based, human. Particulars: 10^−8 M, 1 h; etoposide 5×10^−5 M, 6 hour. An excerpt: CMV promoter alone and CMV promoter-driven cDNA for mERα or mErβ were stably transfected into HeLa cells. […] Cells were trypsinized, pelleted and trypan blue positive cells enumerated.
In this experiment, instead of calvaria cells, human HeLa cells which contain undetectable, if any, estrogen receptor were used. HeLa cells were stably transfected with either a CMV promoter-driven cDNA for the murine estrogen receptor-alpha (mERα) or a CMV promoter-driven cDNA for the murine estrogen receptor-beta (mERβ). […] Cells were trypsinized, pelleted and trypan blue positive cells were enumerated.

Test [2] can be described thus: Vertebral compression strength of fifth lumbar vertebrae (L5). Type of test: in vivo, mice. The settings on record: 2000 ng/g body weight for 28 days. Here is the method:
In a representative experiment of this sort, seven 4-5 month old female mice per group-are screened twice for BMD in a four week period immediately prior to the initiation of the experiment to establish that peak adult bone mass has been attained. A subset of mice are then ovariectomized. Intact and ovariectomized mice are treated with vehicle, or 20, 200 or 2000 ng/g body weight estratriene-3-ol or another ANGEL compound. […] Ultimate load bearing properties of the fifth lumbar murine vertebrae (L5) is determined. This is done using a servohydraulic axial-torsional material testing machine (Model MTS 810 Bionx; MTS Systems Corp., Eden Prairie, Minn.) and a Lebow load cell (Eaton Products, Troy, Mich.). Data are recorded and analyzed using the LabVIEW software package and an acquisition/signal conditioning board (Model NB-MIO-16, National Instruments Corporation, Austin, Tex.). The L5 specimens that is used for ultimate load bearing is cleaned of surrounding soft tissue and the length and diameter recorded with a digital caliper at a resolution of 0.01 mm (Mitutoyo Model #500-196, Ace Tools, Ft. Smith, Ariz.). […] Vertebrae are individually compressed between parallel loading platens along the cephalocaudad axis until failure and the ultimate load (in Newtons) and displacement (in mm) are recorded. […]

T1 sequence (O08537 whole entry): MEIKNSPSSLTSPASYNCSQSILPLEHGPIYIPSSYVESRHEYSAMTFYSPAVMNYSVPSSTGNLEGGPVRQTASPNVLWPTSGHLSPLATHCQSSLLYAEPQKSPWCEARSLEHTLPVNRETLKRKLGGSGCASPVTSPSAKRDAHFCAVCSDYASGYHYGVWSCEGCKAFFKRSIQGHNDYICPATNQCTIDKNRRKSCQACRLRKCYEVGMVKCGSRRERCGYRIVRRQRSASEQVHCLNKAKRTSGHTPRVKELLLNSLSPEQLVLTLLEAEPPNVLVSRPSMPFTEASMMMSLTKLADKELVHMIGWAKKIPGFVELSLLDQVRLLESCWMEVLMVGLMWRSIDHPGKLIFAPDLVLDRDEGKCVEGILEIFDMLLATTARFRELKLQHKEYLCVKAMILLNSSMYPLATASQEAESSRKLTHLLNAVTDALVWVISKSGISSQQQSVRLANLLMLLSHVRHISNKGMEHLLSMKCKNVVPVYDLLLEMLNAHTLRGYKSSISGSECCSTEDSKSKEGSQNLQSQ

On to `C[C@@]12CCC[C@H]1[C@@H]1CCc3cc(O)ccc3[C@H]1CC2` [estratriene-3-ol], for which, in test [1], the “inhibition of etoposide-induced apoptosis in HeLa cells transfected with estrogen receptor β” value is “potently inhibited”. For the same compound, the “Vertebral Compression” value worked out at 85.57 ± 10.17 Newtons in test [2] (Ovx mice, p < 0.00001) and 96.26 ± 15.92 Newtons in test [2] (intact mice, p < 0.006).
